{"source": "patent US20210214758A1", "about": "“METHODS AND TOOLS FOR DETERMINING CLONAL RELATEDNESS AND PREDICTING CLONAL TRAITS” (priority 2018, published 2021)", "key": {"Klebsiella isolates [1]": {"system": "Klebsiella isolates", "experiment": "Antibiotic susceptibility of Klebsiella clinical isolates per 7-SNP clonotype (Lookup Table 1; disk diffusion)", "type": "cell-based, Klebsiella spp.", "protocol": "In further embodiments, the Lookup Table is Lookup Table 1. The information contained in Lookup Table 1 below was obtained from urine specimens from patients with Klebsiella infections from several clinics within different regions of the United States. CT=clonotypes determined using a 7-SNP combination: phoE54; rpoB130; infB279; mdh315; phoE336; phoE354; and mdh429.\nNext, antibiotic resistance was determined for all 387 Klebsiella isolates in the discovery set. Antibiotic testing was carried out according to the standard disk diffusion method as described in the Clinical and Laboratory Standards Institute (M100 Performance Standards for Antimicrobial Susceptibility Testing, 27th Edition, 2017). […] Since almost all Klebsiella isolates are known to be resistant to AMP and sensitive to IMI, TET is not used for treatment of urinary tract infections, and ESBL production is partially reflected in resistance to CTR, these antibiotics were not included for further analysis.\nTo aid in clinical decision-making and to translate clonotype information to treatment selection, Lookup Table 1 was generated. […] The information contained in Lookup Table 1 was obtained from urine specimens from patients with Klebsiella infections from several clinics within different regions of the United States. Indications of allowance or non-recommendation were determined based on a 20% resistance threshold to the indicated antibiotic; i.e., the antibiotic is recommended when more than 80% of the tested isolates within the indicated clonotype were susceptible to the indicated antibiotic, and was cautioned against when less than 80% of the isolates were susceptible to the antibiotic."}, "Klebsiella isolates [2]": {"system": "Klebsiella isolates", "conditions": "known; cited from earlier work"}}}
{"compound": "CC1(C)S[C@@H]2[C@H](NC(=O)[C@H](N)c3ccccc3)C(=O)N2[C@H]1C(=O)O", "note": "[AMP, ampicillin]", "values": [{"measurement": "susceptibility, %", "setting": "Klebsiella isolates [1]; CT 000", "result": 34, "unit": "%"}, {"measurement": "susceptibility, %", "setting": "Klebsiella isolates [1]; CT 001", "result": 0, "unit": "%"}, {"measurement": "susceptibility, %", "setting": "Klebsiella isolates [1]; CT 010", "result": 0, "unit": "%"}, {"measurement": "susceptibility, %", "setting": "Klebsiella isolates [1]; CT 011", "result": 0, "unit": "%"}, {"measurement": "susceptibility, %", "setting": "Klebsiella isolates [1]; CT 031", "result": 0, "unit": "%"}, {"measurement": "susceptibility, %", "setting": "Klebsiella isolates [1]; CT 040", "result": 25, "unit": "%"}, {"measurement": "susceptibility, %", "setting": "Klebsiella isolates [1]; CT 050", "result": 0, "unit": "%"}, {"measurement": "susceptibility, %", "setting": "Klebsiella isolates [1]; CT 051", "result": 0, "unit": "%"}, {"measurement": "susceptibility, %", "setting": "Klebsiella isolates [1]; CT 071", "result": 0, "unit": "%"}, {"measurement": "susceptibility, %", "setting": "Klebsiella isolates [1]; CT 100", "result": 0, "unit": "%"}, {"measurement": "susceptibility, %", "setting": "Klebsiella isolates [1]; CT 110", "result": 0, "unit": "%"}, {"measurement": "susceptibility, %", "setting": "Klebsiella isolates [1]; CT 111", "result": 0, "unit": "%"}, {"measurement": "susceptibility, %", "setting": "Klebsiella isolates [1]; CT 130", "result": 2, "unit": "%"}, {"measurement": "susceptibility, %", "setting": "Klebsiella isolates [1]; CT 131", "result": 0, "unit": "%"}, {"measurement": "susceptibility, %", "setting": "Klebsiella isolates [1]; CT 141", "result": 0, "unit": "%"}, {"measurement": "susceptibility, %", "setting": "Klebsiella isolates [1]; CT 150", "result": 0, "unit": "%"}, {"measurement": "susceptibility, %", "setting": "Klebsiella isolates [1]; CT 151", "result": 2, "unit": "%"}, {"measurement": "susceptibility, %", "setting": "Klebsiella isolates [1]; CT 160", "result": 0, "unit": "%"}, {"measurement": "susceptibility, %", "setting": "Klebsiella isolates [1]; CT 170", "result": 4, "unit": "%"}, {"measurement": "susceptibility, %", "setting": "Klebsiella isolates [1]; CT 171", "result": 0, "unit": "%"}, {"measurement": "susceptibility, %", "setting": "Klebsiella isolates [1]; CT 200", "result": 9, "unit": "%"}, {"measurement": "susceptibility, %", "setting": "Klebsiella isolates [1]; CT 201", "result": 6, "unit": "%"}, {"measurement": "susceptibility, %", "setting": "Klebsiella isolates [1]; CT 210", "result": 0, "unit": "%"}, {"measurement": "susceptibility, %", "setting": "Klebsiella isolates [1]; CT 211", "result": 2, "unit": "%"}, {"measurement": "susceptibility, %", "setting": "Klebsiella isolates [1]; CT 230", "result": 0, "unit": "%"}, {"measurement": "susceptibility, %", "setting": "Klebsiella isolates [1]; CT 231", "result": 0, "unit": "%"}, {"measurement": "susceptibility, %", "setting": "Klebsiella isolates [1]; CT 240", "result": 0, "unit": "%"}, {"measurement": "susceptibility, %", "setting": "Klebsiella isolates [1]; CT 241", "result": 0, "unit": "%"}, {"measurement": "susceptibility, %", "setting": "Klebsiella isolates [1]; CT 250", "result": 0, "unit": "%"}, {"measurement": "susceptibility, %", "setting": "Klebsiella isolates [1]; CT 251", "result": 0, "unit": "%"}, {"measurement": "susceptibility, %", "setting": "Klebsiella isolates [1]; CT 271", "result": 0, "unit": "%"}, {"measurement": "susceptibility, %", "setting": "Klebsiella isolates [1]; CT 300", "result": 0, "unit": "%"}, {"measurement": "susceptibility, %", "setting": "Klebsiella isolates [1]; CT 301", "result": 0, "unit": "%"}, {"measurement": "susceptibility, %", "setting": "Klebsiella isolates [1]; CT 310", "result": 0, "unit": "%"}, {"measurement": "susceptibility, %", "setting": "Klebsiella isolates [1]; CT 311", "result": 0, "unit": "%"}, {"measurement": "susceptibility, %", "setting": "Klebsiella isolates [1]; CT 330", "result": 0, "unit": "%"}, {"measurement": "susceptibility, %", "setting": "Klebsiella isolates [1]; CT 331", "result": 1, "unit": "%"}, {"measurement": "susceptibility, %", "setting": "Klebsiella isolates [1]; CT 350", "result": 0, "unit": "%"}, {"measurement": "susceptibility, %", "setting": "Klebsiella isolates [1]; CT 351", "result": 0, "unit": "%"}, {"measurement": "susceptibility, %", "setting": "Klebsiella isolates [1]; CT 370", "result": 0, "unit": "%"}, {"measurement": "susceptibility, %", "setting": "Klebsiella isolates [1]; CT 371", "result": 0, "unit": "%"}, {"measurement": "susceptibility, %", "setting": "Klebsiella isolates [1]; CT 411", "result": 0, "unit": "%"}, {"measurement": "susceptibility, %", "setting": "Klebsiella isolates [1]; CT 450", "result": 0, "unit": "%"}, {"measurement": "susceptibility, %", "setting": "Klebsiella isolates [1]; CT 451", "result": 0, "unit": "%"}, {"measurement": "susceptibility, %", "setting": "Klebsiella isolates [1]; CT 510", "result": 0, "unit": "%"}, {"measurement": "susceptibility, %", "setting": "Klebsiella isolates [1]; CT 511", "result": 0, "unit": "%"}, {"measurement": "susceptibility, %", "setting": "Klebsiella isolates [1]; CT 530", "result": 0, "unit": "%"}, {"measurement": "susceptibility, %", "setting": "Klebsiella isolates [1]; CT 531", "result": 0, "unit": "%"}, {"measurement": "susceptibility, %", "setting": "Klebsiella isolates [1]; CT 550", "result": 0, "unit": "%"}, {"measurement": "susceptibility, %", "setting": "Klebsiella isolates [1]; CT 551", "result": 0, "unit": "%"}, {"measurement": "susceptibility, %", "setting": "Klebsiella isolates [1]; CT 570", "result": 0, "unit": "%"}, {"measurement": "susceptibility, %", "setting": "Klebsiella isolates [1]; CT 571", "result": 0, "unit": "%"}, {"measurement": "susceptibility, %", "setting": "Klebsiella isolates [1]; CT 611", "result": 0, "unit": "%"}, {"measurement": "susceptibility, %", "setting": "Klebsiella isolates [1]; CT 630", "result": 0, "unit": "%"}, {"measurement": "susceptibility, %", "setting": "Klebsiella isolates [1]; CT 650", "result": 0, "unit": "%"}, {"measurement": "susceptibility, %", "setting": "Klebsiella isolates [1]; CT 651", "result": 4, "unit": "%"}, {"measurement": "susceptibility, %", "setting": "Klebsiella isolates [1]; CT 670", "result": 0, "unit": "%"}, {"measurement": "susceptibility, %", "setting": "Klebsiella isolates [1]; CT 710", "result": 0, "unit": "%"}, {"measurement": "susceptibility, %", "setting": "Klebsiella isolates [1]; CT 730", "result": 0, "unit": "%"}, {"measurement": "susceptibility, %", "setting": "Klebsiella isolates [1]; CT 731", "result": 0, "unit": "%"}, {"measurement": "susceptibility, %", "setting": "Klebsiella isolates [1]; CT 750", "result": 0, "unit": "%"}, {"measurement": "susceptibility, %", "setting": "Klebsiella isolates [1]; CT 751", "result": 17, "unit": "%"}, {"measurement": "susceptibility, %", "setting": "Klebsiella isolates [1]; CT 771", "result": 0, "unit": "%"}, {"measurement": "susceptibility, %", "setting": "Klebsiella isolates [1]; CT Any Klebsiella spp.", "result": 6, "unit": "%"}, {"measurement": "resistance or sensitivity of almost all Klebsiella isolates", "setting": "Klebsiella isolates [2]", "result": "resistant"}]}
